Results from article PMC9297976 (Journal of Applied Toxicology, 2021).
pEC50, pIC50: −log10 of the molar value.

Experiments:
[1] = molecular target: T1, medaka Esr1 (mEsr1) (Oryzias latipes, UniProt P50241); assay: Medaka Esr1 reporter gene assay, antagonist assay; type: cell-based, Japanese medaka (Oryzias latipes); details: MAC = 1.0 × 10^−5 M
T1 sequence (P50241 1-620): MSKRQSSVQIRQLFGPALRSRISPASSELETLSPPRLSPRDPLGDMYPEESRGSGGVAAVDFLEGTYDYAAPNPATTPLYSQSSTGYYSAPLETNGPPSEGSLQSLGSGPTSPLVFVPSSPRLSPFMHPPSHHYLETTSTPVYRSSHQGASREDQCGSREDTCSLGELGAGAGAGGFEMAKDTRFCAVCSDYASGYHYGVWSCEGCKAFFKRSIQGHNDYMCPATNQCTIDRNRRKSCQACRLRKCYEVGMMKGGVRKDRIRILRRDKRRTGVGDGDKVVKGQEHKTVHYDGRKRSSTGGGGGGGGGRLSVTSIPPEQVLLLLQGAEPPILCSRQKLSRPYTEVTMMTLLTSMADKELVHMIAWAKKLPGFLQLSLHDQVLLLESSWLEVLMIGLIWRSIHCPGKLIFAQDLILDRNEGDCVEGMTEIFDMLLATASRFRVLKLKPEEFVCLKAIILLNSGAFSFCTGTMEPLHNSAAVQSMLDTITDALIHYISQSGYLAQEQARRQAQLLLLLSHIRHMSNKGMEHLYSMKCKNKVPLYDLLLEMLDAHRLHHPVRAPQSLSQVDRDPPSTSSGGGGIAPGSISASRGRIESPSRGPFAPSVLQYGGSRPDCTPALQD

[2] = molecular target: T1, medaka Esr1 (mEsr1); assay: cell-based; parameters: species or system Japanese medaka (Oryzias latipes); details: for In vitro positive: Esr: mode of action in which EC50 or PC10 was obtained in RGA
[3] = molecular target: T2, medaka ARβ (mArβ) (Oryzias latipes, UniProt D1MV73); assay: Medaka ARβ reporter gene assay, agonist assay; type: cell-based, Japanese medaka (Oryzias latipes); details: MAC = 1.0 × 10^−5 M
T2 sequence (D1MV73 1-744): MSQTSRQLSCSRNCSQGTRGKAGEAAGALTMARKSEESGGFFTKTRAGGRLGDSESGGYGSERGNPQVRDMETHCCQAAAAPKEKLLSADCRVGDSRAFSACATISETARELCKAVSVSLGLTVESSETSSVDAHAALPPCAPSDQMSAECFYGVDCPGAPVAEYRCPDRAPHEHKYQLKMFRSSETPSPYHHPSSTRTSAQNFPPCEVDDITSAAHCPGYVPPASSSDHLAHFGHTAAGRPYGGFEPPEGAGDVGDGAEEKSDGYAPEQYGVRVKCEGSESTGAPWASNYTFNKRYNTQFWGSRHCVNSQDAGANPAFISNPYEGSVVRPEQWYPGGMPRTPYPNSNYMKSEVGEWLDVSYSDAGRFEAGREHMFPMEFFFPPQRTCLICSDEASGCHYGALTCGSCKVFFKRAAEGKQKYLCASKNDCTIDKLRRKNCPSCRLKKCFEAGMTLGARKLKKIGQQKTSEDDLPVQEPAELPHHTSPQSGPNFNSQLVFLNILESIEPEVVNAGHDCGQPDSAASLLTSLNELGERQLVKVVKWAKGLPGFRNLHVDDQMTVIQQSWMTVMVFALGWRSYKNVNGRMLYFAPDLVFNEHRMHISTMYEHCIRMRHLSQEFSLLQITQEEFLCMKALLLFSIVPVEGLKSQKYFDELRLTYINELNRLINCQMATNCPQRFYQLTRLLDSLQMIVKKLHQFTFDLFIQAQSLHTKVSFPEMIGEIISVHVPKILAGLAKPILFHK

[4] = molecular target: T2, medaka ARβ (mArβ); assay: Medaka ARβ reporter gene assay, antagonist assay; type: cell-based, Japanese medaka (Oryzias latipes)
[5] = system: Japanese medaka (Oryzias latipes); assay: Fish Short‐Term Reproduction Assay; type: in vivo; details: for LOECREPRO: LOEC on reproduction (fecundity and/or fertility); for minimal effective concentration: Oryzias latipes, 504 h, read-out: LOECmVTG; for LOECTOX: lowest observed effect concentration on mortality; for GSI Female / GSI Male / HSI Female / HSI Male / Length Female / Length Male / Weight Female / Weight Male: completion of exposure
[6] = 100 μg/L measured, 21 d, sig. ↓ vs control
[7] = measured concentration 5.69 μg/L
[8] = measured concentration 28.8 μg/L
[9] = measured concentration 100 μg/L
[10] = measured concentration 0.0619 μg/L
[11] = measured concentration 0.294 μg/L
[12] = measured concentration 1.30 μg/L

CCC(CC)Nc1c([N+](=O)[O-])cc(C)c(C)c1[N+](=O)[O-] [PDM, Pendimethalin]
Antagonistic activity ([1]; E2 spiked at 1.0 nM (B)): NE (MAC = 1.0 × 10^−5 M)^(B)
pEC50 [2]: 5.48
In vitro positive: Esr [2]: Esr
Agonistic activity [3]: NE (MAC = 1.0 × 10^−5 M)
pIC50 ([4]; Antagonistic activity IC50, 11‐KT spiked at 50 nM (D)): 5.51
In vitro positive: aAr ([4]; mode of action in which IC50 or IC30 was obtained in RGA): aAr
Antagonistic activity on mArβ (in words) ([4]; transcriptional activity on mArβ by 11KT): inhibitory potency
Fertility rate ([5]; 5.69 μg/L measured, 21 d): 93 ± 0.9%
Hepatic VTG, female ([5]; 5.69 μg/L measured, 21 d): 649 ± 200 ng/mg‐liver
Hepatic VTG, male ([5]; 5.69 μg/L measured, 21 d): 0.5 ± 0.0 ng/mg‐liver
Mortality ([5]; 5.69 μg/L measured, 21 d): 0.0%
Mortality, number of dead fish ([5]; 5.69 μg/L measured, 21 d): 0
Number of fertilized eggs (per female per day) ([5]; 5.69 μg/L measured, 21 d): 19 ± 3.1
Number of total eggs (per female per day) ([5]; 5.69 μg/L measured, 21 d): 21 ± 3.4
SSC female (joint plates with papillary processes) ([5]; 5.69 μg/L measured, 21 d): 0 ± 0
SSC male (joint plates with papillary processes) ([5]; 5.69 μg/L measured, 21 d): 85 ± 11
Fertility rate ([5]; 28.8 μg/L measured, 21 d): 88 ± 4.9%
Hepatic VTG, female ([5]; 28.8 μg/L measured, 21 d): 933 ± 692 ng/mg‐liver
Hepatic VTG, male ([5]; 28.8 μg/L measured, 21 d): 5.7 ± 6.6 ng/mg‐liver
Mortality ([5]; 28.8 μg/L measured, 21 d): 4.2%
Mortality, number of dead fish ([5]; 28.8 μg/L measured, 21 d): 1
Number of fertilized eggs (per female per day) ([5]; 28.8 μg/L measured, 21 d): 18 ± 3.6
Number of total eggs (per female per day) ([5]; 28.8 μg/L measured, 21 d): 20 ± 3.9
SSC female (joint plates with papillary processes) ([5]; 28.8 μg/L measured, 21 d): 0 ± 0
SSC male (joint plates with papillary processes) ([5]; 28.8 μg/L measured, 21 d): 80 ± 8.2
Hepatic VTG, female ([5]; 100 μg/L measured, 21 d): 813 ± 157 ng/mg‐liver
Mortality ([5]; 100 μg/L measured, 21 d): 8.3%
Mortality, number of dead fish ([5]; 100 μg/L measured, 21 d): 2
Number of total eggs (per female per day) ([5]; 100 μg/L measured, 21 d): 19 ± 2.1
SSC female (joint plates with papillary processes) ([5]; 100 μg/L measured, 21 d): 0 ± 0
SSC male (joint plates with papillary processes) ([5]; 100 μg/L measured, 21 d): 80 ± 13
Hepatic VTG, male ([5]; 100 μg/L measured, 21 d, sig. ↑ vs control): 774 ± 290 ng/mg‐liver
Fertility rate [5, 6]: 62 ± 11%
Number of fertilized eggs (per female per day) [5, 6]: 12 ± 2.3
LOEC, elevated hepatic VTG in males ([5]; 21 d): 100 µg/L
LOECREPRO [5]: 100 µg/L
minimal effective concentration [5]: 0.1 µg/mL
Fertility rate (in words) ([5]; at concentrations that did not affect number of total eggs): significant decrease
LOECREPRO (reduction in fecundity or fertility) ([5]; concentrations without overt toxicity): 100 µg/L
LOECTOX [5]: ND (>100) μg/L
GSI Female [5, 7]: 10.7 ± 0.8%
GSI Male [5, 7]: 0.64 ± 0.11%
HSI Female [5, 7]: 4.5 ± 0.70%
HSI Male [5, 7]: 2.7 ± 0.16%
Length Female [5, 7]: 32.4 ± 0.7 mm
Length Male [5, 7]: 31.9 ± 0.7 mm
Weight Female [5, 7]: 427 ± 25 mg
Weight Male [5, 7]: 366 ± 25 mg
GSI Female [5, 8]: 11.3 ± 0.8%
GSI Male [5, 8]: 0.55 ± 0.11%
HSI Male [5, 8]: 2.7 ± 0.28%
Length Female [5, 8]: 33.1 ± 0.9 mm
Length Male [5, 8]: 32.2 ± 0.2 mm
Weight Female [5, 8]: 455 ± 46 mg
Weight Male [5, 8]: 393 ± 20 mg
GSI Female [5, 9]: 9.7 ± 0.3%
GSI Male [5, 9]: 0.60 ± 0.20%
HSI Female [5, 9]: 4.4 ± 1.04%
HSI Male [5, 9]: 2.9 ± 0.45%
Length Female [5, 9]: 31.4 ± 0.8 mm
Length Male [5, 9]: 31.9 ± 0.7 mm
Weight Female [5, 9]: 423 ± 30 mg
Weight Male [5, 9]: 389 ± 28 mg

CC(C)C(C(=O)OC(C#N)c1cccc(Oc2ccccc2)c1)c1ccc(Cl)cc1 (centres unmarked) [FV, Fenvalerate]
Antagonistic activity ([1]; E2 spiked at 0.2 nM (A)): NE (MAC = 1.0 × 10^−5 M) ^(A)
pEC50 [2]: 5.62
In vitro positive: Esr [2]: Esr
Agonistic activity [3]: NE (MAC = 1.0 × 10^−5 M)
Antagonistic activity ([4]; 11‐KT spiked at 50 nM (D), MAC = 1.0 × 10^−5 M): NE (MAC = 1.0 × 10^−5 M)^(D)
Fertility rate ([5]; 0.0619 μg/L measured, 21 d): 92 ± 3.2%
Hepatic VTG, female ([5]; 0.0619 μg/L measured, 21 d): 390 ± 68 ng/mg‐liver
Hepatic VTG, male ([5]; 0.0619 μg/L measured, 21 d): 0.5 ± 0.0 ng/mg‐liver
Mortality ([5]; 0.0619 μg/L measured, 21 d): 0.0%
Mortality, number of dead fish ([5]; 0.0619 μg/L measured, 21 d): 0
Number of fertilized eggs (per female per day) ([5]; 0.0619 μg/L measured, 21 d): 18 ± 2.7
Number of total eggs (per female per day) ([5]; 0.0619 μg/L measured, 21 d): 19 ± 3.6
SSC female (joint plates with papillary processes) ([5]; 0.0619 μg/L measured, 21 d): 0 ± 0
SSC male (joint plates with papillary processes) ([5]; 0.0619 μg/L measured, 21 d): 80 ± 5.6
Fertility rate ([5]; 0.294 μg/L measured, 21 d): 93 ± 4.3%
Hepatic VTG, female ([5]; 0.294 μg/L measured, 21 d): 370 ± 212 ng/mg‐liver
Hepatic VTG, male ([5]; 0.294 μg/L measured, 21 d): 0.5 ± 0.0 ng/mg‐liver
Mortality ([5]; 0.294 μg/L measured, 21 d): 0.0%
Mortality, number of dead fish ([5]; 0.294 μg/L measured, 21 d): 0
Number of fertilized eggs (per female per day) ([5]; 0.294 μg/L measured, 21 d): 20 ± 3.5
Number of total eggs (per female per day) ([5]; 0.294 μg/L measured, 21 d): 21 ± 3.1
SSC female (joint plates with papillary processes) ([5]; 0.294 μg/L measured, 21 d): 0 ± 0
SSC male (joint plates with papillary processes) ([5]; 0.294 μg/L measured, 21 d): 88 ± 7.2
Fertility rate ([5]; 1.30 μg/L measured, 21 d): 94 ± 2.8%
Hepatic VTG, female ([5]; 1.30 μg/L measured, 21 d): 237 ± 152 ng/mg‐liver
Hepatic VTG, male ([5]; 1.30 μg/L measured, 21 d): 0.9 ± 0.4 ng/mg‐liver
Mortality ([5]; 1.30 μg/L measured, 21 d): 0.0%
Mortality, number of dead fish ([5]; 1.30 μg/L measured, 21 d): 0
Number of fertilized eggs (per female per day) ([5]; 1.30 μg/L measured, 21 d): 23 ± 1.7
Number of total eggs (per female per day) ([5]; 1.30 μg/L measured, 21 d): 24 ± 1.8
SSC female (joint plates with papillary processes) ([5]; 1.30 μg/L measured, 21 d): 0 ± 0
SSC male (joint plates with papillary processes) ([5]; 1.30 μg/L measured, 21 d): 83 ± 4.8
LOECREPRO [5]: ND (>1.30) μg/L
minimal effective concentration [5]: > 0.0013 µg/mL
LOECTOX [5]: ND (>1.3) μg/L
GSI Female [5, 10]: 9.9 ± 0.7%
GSI Male [5, 10]: 0.75 ± 0.07%
HSI Female [5, 10]: 4.3 ± 0.70%
HSI Male [5, 10]: 2.7 ± 0.30%
Length Female [5, 10]: 33.5 ± 1.1 mm
Length Male [5, 10]: 33.8 ± 1.4 mm
Weight Female [5, 10]: 454 ± 36 mg
Weight Male [5, 10]: 418 ± 51 mg
GSI Female [5, 11]: 9.7 ± 0.5%
GSI Male [5, 11]: 0.67 ± 0.11%
HSI Female [5, 11]: 4.7 ± 0.40%
HSI Male [5, 11]: 2.3 ± 0.50%
Length Female [5, 11]: 34.4 ± 0.9 mm
Length Male [5, 11]: 34.0 ± 0.2 mm
Weight Female [5, 11]: 484 ± 33 mg
Weight Male [5, 11]: 422 ± 22 mg
GSI Female [5, 12]: 10.0 ± 0.1%
GSI Male [5, 12]: 0.72 ± 0.10%
HSI Female [5, 12]: 4.4 ± 0.80%
HSI Male [5, 12]: 2.5 ± 0.20%
Length Female [5, 12]: 34.1 ± 0.5 mm
Length Male [5, 12]: 33.9 ± 1.9 mm
Weight Female [5, 12]: 491 ± 33 mg
Weight Male [5, 12]: 416 ± 56 mg
